Measurements published in US7071168B2, “Anti-cancer compounds and methods related thereto” (The Regents of the University of Colorado, priority 1998, dated 2006).

Experiments:
SCLC strain SHP-77 = test: Colorimetric tetrazolium (MTT) assay for cell survival, SCLC strain SHP-77; assay type: cell-based, human
Experimental: In general, Anti-bradykinin activity was determined by the classical guinea pig ileum assay and on Chinese hamster ovary (CHO) cells expressing cloned human bradykinin B2 receptors. Anti-tumor activity was determined on cultured human cancer cell lines using the standard tetrazolium (MTT) assay.
Cell growth and survival were measured by a rapid colorimetric assay based on the tetrazolium salt MTT (3-(4,5-dimethylthiazol-2-yl)-2,5-diphenyl tetrazolium bromide) (Mosmann, J Immunol. Methods 65: 55–63, 1983, with minor modifications). Briefly, 1,000 normal lung fibroblasts or normal epithelial BEAS-2B cells, 1,000 or 5,000 viable non-SCLC cells or 10,000 viable SCLC cells were plated in 100 μL of growth medium in 96-well flat-bottomed microtiter plates. Cells were incubated overnight to allow recovery. Compounds to be tested were added to the cells in triplicate in a range of concentrations and the cells were incubated at 37° C., 5% CO2, with 100% humidity. Control cells were treated in the same way without antagonists. […] Plates were incubated for 4 days, allowing sufficient time for cell replication and compound-induced cell death to occur. On day 5, 25 μL of a 2 mg/mL solution of MTT (Sigma) dissolved in RMPI-1640was added to each well. The plate was incubated for 4 h at 37° C. The supernate was removed and the blue formazan complex was dissolved by adding 100 μL of 0.02 N HCl in 75% isopropanol to all wells. Absorbance was immediately determined using a scanning multiwell plate reader. B9870 caused 50% cell death at a concentration of 0.15 μM under these conditions.

[1] = system: bradykinin response of isolated guinea pig ileum; test: Anti-bradykinin activity on isolated guinea pig ileum
Procedure, shortened: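 Terminal ileum segments (25 mm) from overnight-fasted male Hartley guinea pigs, in Krebs' solution gassed with 95% O2/5% CO2 under 1 g tension, equilibrated 1 h. Bradykinin concentration-effect curves constructed without and with test compounds.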

[2] = Table 1, higher numbers indicate higher potency
[3] = isolated guinea pig ileum, pD2 of bradykinin is 7.4, higher numbers indicate higher potency

Row | Molecule | MTT: ED50 for killing of SCLC strain SHP-77 in vitro (SCLC strain SHP-77; Table 1, SHP-77, MTT, 4 days) | GPI: pA2 for bradykinin antagonist activity on isolated guinea pig ileum [1, 2] | MTT: ED50 for killing of SCLC strain SHP-77 in vitro (SCLC strain SHP-77; SCLC strain SHP-77 in vitro) | GPI: pA2 for bradykinin antagonist activity on isolated guinea pig ileum [1, 3] | further results
1 | DTP-(DArg-Arg-Eac-Ser-DF5F-Nc7G-Arg)2 [M1026] | 70 µM | 6.9 |  |  | 
2 | TDIM-(DArg-Arg-Pro-Hyp-Gly-Igl-Ser-DIgl-Oic-Arg)2 [B10100-2] | 1 µM | 8.0 |  |  | 
3 | F5c-DArg-Arg-Eac-Ser-DIgl-Oic-Arg [M852] | Inact | 5.9 |  |  | 
4 | COC(=O)CCCCCCCCC(=O)Nc1ccc(C=CC(=O)NC(Cc2csc3ccccc23)C(=O)NC2CC(C)(C)NC(C)(C)C2)cc1 (centres unmarked) [M506] |  |  | 11 µM | 4.9 | 
5 | F5c-pABz-2Nal-Arg [M176] | Inact | 5.4 |  |  | 
6 | CC1(C)CC(NC(=O)[C@H](Cc2ccc3ccccc3c2)NC(=N)CCCCCCCCCCCCC(=N)N[C@@H](Cc2ccc3ccccc3c2)C(=O)NC2CC(C)(C)NC(C)(C)C2)CC(C)(C)N1 [M254] |  |  | 5 µM | 5.1 | 
7 | CC1(C)CC(NC(=O)[C@H](Cc2c(F)c(F)c(F)c(F)c2F)NC(=NC2CCCCC2)NC2CCCCC2)CC(C)(C)N1 [M240] |  |  | 32 µM | 5.1 | 
8 | DDD-(Eac-Eac-Arg-DIgl-Oic-Arg)2 [B10200] | 16 µM | 5.8 |  |  | 
9 | CC1(C)C=C(C(=O)NCCNC(=O)C(Cc2ccc3ccccc3c2)NC(=O)C=Cc2c(F)c(F)c(F)c(F)c2F)C(C)(C)N1 (centres unmarked) [M268] |  |  | 10 µM | 5.2 | 
10 | DDD-(Pac-2Nal-DArg-NH2)2 [M504] | 11 µM | 5.4 |  |  | 
11 | Aaa-DPhe-hPhe-Arg [M754] | Inact | 4.6 |  |  | 
12 | DDD-(DArg-Arg-Aud-Ser-DIgl-Oic-Arg)2 [M858] | 4 µM | 6.3 |  |  | 
13 | CC1(C)CC(NC(=O)C(NC(=O)C=Cc2c(F)c(F)c(F)c(F)c2F)C(C)(C)C)CC(C)(C)N1 (centres unmarked) [M662] |  |  | Inact | 5.2 | 
14 | F5c-DArg-Arg-Aud-DIgl-PFF-Arg [M838] | 7.4 µM | 5.1 |  |  | 
15 | DDD-(Lys-Ser-DF5F-Oic-Arg)2 [M808] | 30 µM | 6.9 |  |  | 
16 | O=C(NC1CN2CCC1CC2)C(NC(=NC1CCCCC1)NC1CCCCC1)C1Cc2ccccc2C1 (centres unmarked) [M12] |  |  | 20 µM | 5.0 | 
17 | COc1cc(C=CC(=O)N[C@@H](Cc2ccc3ccccc3c2)C(=O)NC2CC(C)(C)NC(C)(C)C2)cc(OC)c1O [M274] |  |  | 36 µM | 4.7 | 
18 | F5c-DArg-Eac-2Nal-Arg [M696] | Inact | 5.1 |  |  | 
19 | c[DArg-Arg-Pro-Hyp-Gly-Igl-Ser-DIgl-Oic-Arg] [B10302] |  |  |  |  | MTT: ED50 for killing of SCLC strain SHP-77 in vitro (SCLC strain SHP-77; Table 3, cyclic peptides): Inact; GPI: pA2 for bradykinin antagonist activity on isolated guinea pig ileum ([1]; Table 3, cyclic peptides): 5.2
20 | DDD-(DArg-Arg-Aud-DTic-Oic-Arg)2 [M790] | 1.7 µM | Inact |  |  | 
21 | Moti-DArg-Arg-Pro-Hyp-Gly-Igl-Ser-DIgl-Oic-Arg [B10100-1] | 4 µM | 7.8 |  |  | 
22 | CC1(C)CC(NC(=O)C(Cc2ccc3ccccc3c2)NC(=O)c2nc(Cl)c(Cl)c(N)c2Cl)CC(C)(C)N1 (centres unmarked) [M302] |  |  | 3.5 µM | 5.2 | 
23 | SUIM-(DArg-Arg-Pro-Hyp-Gly-Igl-Ser-DIgl-Oic-Arg-NH2)2 [B10082] | 0.7 µM | 7.2 |  |  | 

Row | Molecule | MTT: ED50 for killing of SCLC strain SHP-77 in vitro (SCLC strain SHP-77; Table 1, SHP-77, MTT, 4 days) | GPI: pA2 for bradykinin antagonist activity on isolated guinea pig ileum [1, 2] | MTT: ED50 for killing of SCLC strain SHP-77 in vitro (SCLC strain SHP-77; SCLC strain SHP-77 in vitro) | GPI: pA2 for bradykinin antagonist activity on isolated guinea pig ileum [1, 3] | further results
24 | F5c-MBC-Arg [M528] | Inact | Inact |  |  | 
25 | CC1(C)CC(NC(=O)[C@@H](N)Cc2ccc3ccccc3c2)CC(C)(C)N1 [M218] |  |  | Inact | 4.8 | 
26 | CC1(C)CC(NC(=O)C(Cc2ccc3ccccc3c2)NC(=O)COc2c(F)c(F)c(F)c(F)c2F)CC(C)(C)N1 (centres unmarked) [M568] |  |  | 10 µM | 5.8 | 
27 | c[DArg-Arg-Add-Ser-DIgl-PFF-Arg] [M882] |  |  |  |  | MTT: ED50 for killing of SCLC strain SHP-77 in vitro (SCLC strain SHP-77; Table 3, cyclic peptides): 4.5 µM; GPI: pA2 for bradykinin antagonist activity on isolated guinea pig ileum ([1]; Table 3, cyclic peptides): Inact
28 | DArg-Arg-Pro-Hyp-Gly-Igl-Ser-DIgl-Oic-Arg-NH2 [B10062] | Inact | 7.1 |  |  | 
29 | COC(=O)C1(NC(=O)[C@H](Cc2ccc3ccccc3c2)NC(=NC2CCCCC2)NC2CCCCC2)CC(C)(C)NC(C)(C)C1 [M244A] |  |  | 12 µM | 5.0 | 
30 | CC1(C)CC(NC(=O)[C@H](Cc2ccc3ccccc3c2)NC(=O)C2=CN3CCC2CC3)CC(C)(C)N1 [M252] |  |  | Inact | 4.8 | 
31 | F5c-F5F-Arg [M810] | 40 µM | 4.6 |  |  | 
32 | CC1(C)CC(NC(=O)[C@H](Cc2ccc3ccccc3c2)NC(=N)CCCCCCCCCCCCC(=N)N[C@@H](Cc2ccc3ccccc3c2)C(=O)NC2CC(C)(C)NC(C)(C)C2)CC(C)(C)N1 [M254-1] |  |  | 5 µM | 5.1 | 
33 | (Gun)2-BApG-DArg-Arg-Pro-Hyp-Gly-Igl-Ser-DIgl-Oic-Arg [B10092] | >20 µM | 8.7 |  |  | 
34 | F5c-DArg-Arg-Eac-Ser-DTic-Oic-Arg [M792] | >100 µM | 4.9 |  |  | 
35 | F5c-Gly-mABz-2Nal-Arg [M196] | Inact | 5.1 |  |  | 
36 | CC1(C)CC(NC(=O)[C@@H](NC(=NC2CCCCC2)NC2CCCCC2)C2Cc3ccccc3C2)CC(C)(C)N1 [M236] |  |  | >50 µM | 4.7 | 
37 | Leu-Leu-DTrp-Phe-DTrp-DNMF-Eac2-DArg-Arg-Pro-Hyp-Gly-Igl-Ser-Digl-Oic-Arg [B10162] | 7 µM | 6.3 |  |  | 
38 | F5c-DArg-Arg-Aud-Ser-D5F5-Oic-Arg [M888] | 12.5 µM | 6.6 |  |  | 
39 | CC1(C)CC(NC(=O)[C@H](Cc2c[nH]c3ccccc23)NC(=NC2CCCCC2)NC2CCCCC2)CC(C)(C)N1 [M264] |  |  | 16 µM | 4.7 | 
40 | F5c-DArg-Arg-Add-Ser-DIgl-Oic-Arg [M860] | 6 µM | 5.4 |  |  | 
41 | CN(C)c1ccc(C=CC(=O)NC(Cc2ccc(OCc3c(Cl)cccc3Cl)cc2)C(=O)N(C)C2CC(C)(C)NC(C)(C)C2)cc1.O=C(O)C(F)(F)F (centres unmarked) [M630, Dmac-OC2Y-Matp.TFA] |  |  | 1.6 µM | 5.0 | 
42 | CN(C)c1cccc2c(S(=O)(=O)NC(Cc3ccc(OCc4c(Cl)cccc4Cl)cc3)C(=O)N(C)C3CC(C)(C)NC(C)(C)C3)cccc12 (centres unmarked) [M624] |  |  | 1.4 µM | 5.1 | 
43 | CC1(C)CC(NC(=O)C(Cc2ccc3ccccc3c2)NC(=O)OC(C)(C)C)CC(C)(C)N1 (centres unmarked) [M288] |  |  | Inact | 5.2 | 
44 | DDD-(DArg-Arg-Aud-DF5F-Oic-Arg)2 [M846] | 2 µM | 7.1 |  |  | 
45 | CN(C(=O)C(Cc1ccc(OCc2c(Cl)cccc2Cl)cc1)NC(=O)C=Cc1cccnc1)C1CC(C)(C)NC(C)(C)C1 (centres unmarked) [M626] |  |  | 3.7 µM | 4.8 | 
46 | c[Ava-Igl-Ser-DF5F-Oic-Arg] [M824] |  |  |  |  | MTT: ED50 for killing of SCLC strain SHP-77 in vitro (SCLC strain SHP-77; Table 3, cyclic peptides): Inact; GPI: pA2 for bradykinin antagonist activity on isolated guinea pig ileum ([1]; Table 3, cyclic peptides): 5.2
